Results: US9957271B2, “Substituted bicyclic aza-heterocycles and analogues as sirtuin modulators” (GlaxoSmithKline, LLC, priority 2012, dated 2018)
Each block holds one compound with its values, some of them ahead of it.

Biological target: T1, SIRT1 (Homo sapiens, UniProt Q96EB6)
T1 sequence (Q96EB6 1-747): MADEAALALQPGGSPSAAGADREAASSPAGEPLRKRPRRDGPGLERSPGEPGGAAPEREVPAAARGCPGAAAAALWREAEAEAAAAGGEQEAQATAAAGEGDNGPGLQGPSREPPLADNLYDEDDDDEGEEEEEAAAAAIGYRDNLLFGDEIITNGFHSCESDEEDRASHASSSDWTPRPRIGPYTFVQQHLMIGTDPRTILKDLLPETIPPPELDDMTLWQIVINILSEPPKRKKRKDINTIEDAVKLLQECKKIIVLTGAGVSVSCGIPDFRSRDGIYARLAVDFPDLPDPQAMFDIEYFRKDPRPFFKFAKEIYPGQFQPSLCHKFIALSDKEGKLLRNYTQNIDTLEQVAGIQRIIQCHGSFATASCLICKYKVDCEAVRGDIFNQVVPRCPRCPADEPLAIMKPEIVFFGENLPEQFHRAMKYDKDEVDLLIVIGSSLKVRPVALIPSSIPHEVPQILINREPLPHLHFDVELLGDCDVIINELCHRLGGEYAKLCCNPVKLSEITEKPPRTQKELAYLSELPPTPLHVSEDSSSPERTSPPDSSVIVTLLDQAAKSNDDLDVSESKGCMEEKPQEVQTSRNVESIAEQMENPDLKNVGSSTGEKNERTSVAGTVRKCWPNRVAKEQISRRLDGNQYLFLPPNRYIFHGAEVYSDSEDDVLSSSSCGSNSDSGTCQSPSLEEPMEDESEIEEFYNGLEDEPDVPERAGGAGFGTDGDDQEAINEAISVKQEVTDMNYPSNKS
Experiment: Trp mass spectrometry assay of SIRT1 activity
Format: biochemical
Details: Trp assay; for Trp EC1.5 (μM): concentration giving 150% activation of SIRT1; for Emax: percent maximum fold activation, read-out: Trp % Fold Act
Excerpt: Mass spectrometry based assays were used to identify modulators of SIRT1 activity. The TAMRA based assay utilized a peptide having 20 amino acid residues as follows: Ac-EE-K(biotin)-[…](Ac)NleSTEG-K(5TMR)-EE-NH2 (SEQ ID NO: 1), wherein K(Ac) is an acetylated lysine residue and Nle is a norleucine. The peptide was labeled with the fluorophore 5TMR (excitation 540 nm/emission 580 nm) at the C-terminus. The sequence of the peptide substrate was based on p53 with several modifications. In addition, the methionine residue naturally present in the sequence was replaced with the norleucine because the methionine may be susceptible to oxidation during synthesis and purification. The Trp based assay utilized a peptide having an amino acid residues as follows: Ac-R-H-K-K(Ac)-W-NH2 (SEQ ID NO: 2).
The Trp mass spectrometry assay was conducted as follows. 0.5 μM peptide substrate and 120 μM βNAD^+ were incubated with 10 nM SIRT1 for 25 minutes at 25° C. in a reaction buffer (50 mM HEPES pH 7.5, […], 1 mM DTT, 0.05% BSA). The SIRT1 protein was obtained by cloning the SirT1 gene into a T7-promoter containing vector, which was then expressed in BL21(DE3) bacterial cells and purified as described in further detail below. Test compound was added at varying concentrations to this reaction mixture and the resulting reactions were monitored. After the 25 minute incubation with SIRT1, 10 μL of 10% formic acid was added to stop the reaction. The resulting reactions were sealed and frozen for later mass spec analysis. The relative SIRT1 activity was then determined by measuring the amount of O-acetyl-ADP-ribose (OAADPR) formed (or, alternatively, the amount of deacetylated Trp peptide generated) by the NAD-dependent sirtuin deacetylation reaction in the presence of varying concentrations of the test compound versus control reactions lacking the test compound. The degree to which the test agent activated deacetylation by SIRT1 was expressed as EC1.5 (i.e., the concentration of compound required to increase SIRT1 activity by 50% over the control lacking test compound), and Percent Maximum Activation (i.e., the maximum activity relative to control (100%) obtained for the test compound).
A control for inhibition of sirtuin activity was conducted by adding 1 μL of 500 mM nicotinamide as a negative control at the start of the reaction (e.g., permits determination of maximum sirtuin inhibition). A control for activation of sirtuin activity was conducted using 10 nM of sirtuin protein, with 1 μL of DMSO in place of compound, to determine the amount of deacetylation of the substrate at a given time point within the linear range of the assay. This time point was the same as that used for test compounds and, within the linear range, the endpoint represents a change in velocity.
For the above assay, SIRT1 protein was expressed and purified as follows. The SirT1 gene was cloned into a T7-promoter containing vector and transformed into BL21(DE3). The protein was expressed by induction with 1 mM IPTG as an N-terminal His-tag fusion protein at 18° C. overnight and harvested at 30,000×g. Cells were lysed with lysozyme in lysis buffer (50 mM Tris-HCl, 2 mM Tris[2-carboxyethyl]phosphine (TCEP), 10 μM ZnCl2, 200 mM NaCl) and further treated with sonication for […] for complete lysis. The protein was purified over a Ni-NTA column (Amersham) and fractions containing pure protein were pooled, concentrated and run over a sizing column (Sephadex S200 26/60 global). The peak containing soluble protein was collected and run on an Ion-exchange column (MonoQ). Gradient elution (200 mM-500 mM NaCl) yielded pure protein. This protein was concentrated and dialyzed against dialysis buffer (20 mM Tris-HCl, 2 mM TCEP) overnight. The protein was aliquoted and frozen at −80° C. until further use.

Compound: O=C(Nc1ccccn1)c1cnc2ccc(N3CCC(F)(F)C3)nn12 [Compound 909]
Trp EC1.5 (μM): B (EC1.5 1-25 μM)
Emax: ≥ 350%

Compound: CN(C)c1cccc(NC(=O)c2cnc3ccc(N4CC[C@H](F)C4)nn23)n1 [Compound 911]
Trp EC1.5 (μM): A (EC1.5<1 μM)
Emax: ≥ 350%

Compound: O=C(Nc1ccccn1)c1cnc2ccc(N3CC(F)(F)C3)nn12 [Compound 912]
Trp EC1.5 (μM): B (EC1.5 1-25 μM)
Emax: < 350%

Compound: O=C(Nc1ccc(F)cn1)c1cnc2ccc(N3CC(F)(F)C3)nn12 [Compound 914]
Trp EC1.5 (μM): C (EC1.5>25 μM)
Emax: < 350%

Compound: O=C(Nc1ccncc1F)c1cnc2ccc(N3CC(F)(F)C3)nn12 [Compound 915]
Trp EC1.5 (μM): C (EC1.5>25 μM)
Emax: < 350%

Compound: O=C(Nc1cccnn1)c1cnc2ccc(N3CC(F)(F)C3)nn12 [Compound 916]
Trp EC1.5 (μM): C (EC1.5>25 μM)
Emax: < 350%

Compound: O=C(Nc1cc(OC[C@@H](O)CO)cnn1)c1cnc2ccc(N3CC[C@H](F)C3)nn12 [Compound 917]
Trp EC1.5 (μM): B (EC1.5 1-25 μM)
Emax: < 350%

Compound: COc1nccc(NC(=O)c2cnc3ccc(N4CC[C@H](F)C4)nn23)n1 [Compound 918]
Trp EC1.5 (μM): B (EC1.5 1-25 μM)
Emax: < 350%

Compound: Cc1ccc(NC(=O)c2cnc3ccc(N4CC[C@H](F)C4)nn23)cn1 [Compound 920]
Trp EC1.5 (μM): B (EC1.5 1-25 μM)
Emax: < 350%

Compound: O=C(Nc1ccncn1)c1cnc2ccc(N3CC(F)(F)C3)nn12 [Compound 921]
Trp EC1.5 (μM): C (EC1.5>25 μM)
Emax: < 350%

Compound: COc1cc(NC(=O)c2cnc3ccc(N4CC[C@H](F)C4)nn23)ncn1 [Compound 922]
Trp EC1.5 (μM): C (EC1.5>25 μM)
Emax: < 350%

Compound: CN(C)c1ccnc(NC(=O)c2cnc3ccc(N4CC[C@H](F)C4)nn23)n1 [Compound 923]
Trp EC1.5 (μM): A (EC1.5<1 μM)
Emax: ≥ 350%

Compound: CN(C)c1cnnc(NC(=O)c2cnc3ccc(N4CC[C@H](F)C4)nn23)c1 [Compound 924]
Trp EC1.5 (μM): B (EC1.5 1-25 μM)
Emax: < 350%

Compound: O=C(Nc1cnccn1)c1cnc2ccc(N3CC(F)(F)C3)nn12 [Compound 926]
Trp EC1.5 (μM): C (EC1.5>25 μM)
Emax: < 350%

Compound: O=C(Nc1ccccn1)c1cnc2ccc(N3CCC(F)(F)CC3)nn12 [Compound 927]
Trp EC1.5 (μM): B (EC1.5 1-25 μM)
Emax: ≥ 350%

Compound: O=C(Nc1cccnn1)c1cnc2ccc(N3CCC(F)(F)CC3)nn12 [Compound 930]
Trp EC1.5 (μM): B (EC1.5 1-25 μM)
Emax: ≥ 350%

Compound: CO[C@H]1CCN(c2ccc3ncc(C(=O)Nc4ccccn4)n3n2)C1 [Compound 933]
Trp EC1.5 (μM): B (EC1.5 1-25 μM)
Emax: < 350%

Compound: CO[C@H]1CCN(c2ccc3ncc(C(=O)Nc4ccc(F)cn4)n3n2)C1 [Compound 935]
Trp EC1.5 (μM): B (EC1.5 1-25 μM)
Emax: < 350%

Compound: CO[C@H]1CCN(c2ccc3ncc(C(=O)Nc4ccncc4F)n3n2)C1 [Compound 936]
Trp EC1.5 (μM): B (EC1.5 1-25 μM)
Emax: < 350%

Compound: CN1CCN(c2ccc3ncc(C(=O)Nc4ccc(F)cn4)n3n2)CC1 [Compound 947]
Emax: < 350%

Compound: CN1CCN(c2ccc3ncc(C(=O)Nc4ccccn4)n3n2)CC1 [Compound 948]
Emax: < 350%

Compound: CN1CCN(c2ccc3ncc(C(=O)Nc4ccncc4F)n3n2)CC1 [Compound 949]
Emax: < 350%

Compound: CN1CCN(c2ccc3ncc(C(=O)Nc4cccnn4)n3n2)CC1 [Compound 950]
Emax: < 350%

Compound: CN1CCN(c2ccc3ncc(C(=O)Nc4cncc(F)c4)n3n2)CC1 [Compound 951]
Emax: < 350%

Compound: CC1(C)CCN(c2ccc3ncc(C(=O)Nc4ccccn4)n3n2)C1 [Compound 952]
Emax: ≥ 350%

Compound: CC1(C)CCN(c2ccc3ncc(C(=O)Nc4ccc(F)cn4)n3n2)C1 [Compound 954]
Emax: < 350%

Compound: CC1(C)CCN(c2ccc3ncc(C(=O)Nc4cccnn4)n3n2)C1 [Compound 955]
Emax: ≥ 350%

Compound: CC1(C)CCN(c2ccc3ncc(C(=O)Nc4cncc(F)c4)n3n2)C1 [Compound 956]
Emax: < 350%

Compound: CC1(C)CCN(c2ccc3ncc(C(=O)Nc4ccncc4F)n3n2)C1 [Compound 960]
Emax: < 350%

Compound: O=C(Nc1ccncn1)c1cnc2ccc(N3CCOCC3)nn12 [Compound 961]
Emax: < 350%

Continued, values first:

Trp EC1.5 (μM): B (EC1.5 1-25 μM)
Emax: < 350%
Compound: O=C(Nc1cccnc1)c1cnc2ccc(N3CCC(F)(F)C3)nn12 [Compound 908]

Trp EC1.5 (μM): A (EC1.5<1 μM)
Emax: ≥ 350%
Compound: O=C(Nc1cncc(F)c1)c1cnc2ccc(N3CCCC(C(F)(F)F)C3)nn12 (stereo not drawn) [Compound 910]

Trp EC1.5 (μM): B (EC1.5 1-25 μM)
Emax: < 350%
Compound: O=C(Nc1cccnc1)c1cnc2ccc(N3CC(F)(F)C3)nn12 [Compound 913]

Trp EC1.5 (μM): C (EC1.5>25 μM)
Emax: < 350%
Compound: O=C(Nc1ccc(C(F)(F)F)nc1)c1cnc2ccc(N3CC[C@H](F)C3)nn12 [Compound 919]

Trp EC1.5 (μM): B (EC1.5 1-25 μM)
Emax: < 350%
Compound: O=C(Nc1cccnc1)c1cnc2ccc(N3CCC(F)(F)CC3)nn12 [Compound 928]

Trp EC1.5 (μM): B (EC1.5 1-25 μM)
Emax: ≥ 350%
Compound: O=C(Nc1cncc(F)c1)c1cnc2ccc(N3CCC(F)(F)CC3)nn12 [Compound 929]

Trp EC1.5 (μM): A (EC1.5<1 μM)
Emax: ≥ 350%
Compound: O=C(Nc1ccncc1F)c1cnc2ccc(N3CCCC(C(F)(F)F)C3)nn12 (stereo not drawn) [Compound 931]

Trp EC1.5 (μM): A (EC1.5<1 μM)
Emax: ≥ 350%
Compound: O=C(Nc1cccnc1)c1cnc2ccc(N3CCCC(C(F)(F)F)C3)nn12 (stereo not drawn) [Compound 932]

Trp EC1.5 (μM): B (EC1.5 1-25 μM)
Emax: < 350%
Compound: CO[C@H]1CCN(c2ccc3ncc(C(=O)Nc4cccnc4)n3n2)C1 [Compound 934]

Trp EC1.5 (μM): A (EC1.5<1 μM)
Emax: ≥ 350%
Compound: O=C(Nc1cccnc1)c1cnn2ccc(N3CCCCC3C(F)(F)F)nc12 (stereo not drawn) [Compound 945, N-(pyridin-3-yl)-5-(2-(trifluoromethyl)piperidin-1-yl)pyrazolo[1,5-a]pyrimidine-3-carboxamide]

Trp EC1.5 (μM): C (EC1.5>25 μM)
Emax: < 350%
Compound: CN1CCN(c2ccc3ncc(C(=O)Nc4cccnc4)n3n2)CC1 [Compound 946]

Emax: ≥ 350%
Compound: CC1(C)CCN(c2ccc3ncc(C(=O)Nc4cccnc4)n3n2)C1 [Compound 953]

Emax: ≥ 350%
Compound: O=C(Nc1ccccn1)c1cnn2ccc(N3CCCCC3C(F)(F)F)nc12 (stereo not drawn) [Compound 957]

Emax: ≥ 350%
Compound: O=C(Nc1cccnc1)c1cnc2ccc(N3CCC(C(F)(F)F)C3)nn12 (stereo not drawn) [Compound 958]

Emax: ≥ 350%
Compound: O=C(Nc1cncc(F)c1)c1cnc2ccc(N3CCC(C(F)(F)F)C3)nn12 (stereo not drawn) [Compound 959]
